Test results as given in patent US11787850B2, “Peptidic TGF-beta antagonists” (priority 2015, dated 2023).

Assays:
[1] = system: TGF-β1-induced Smad3-driven (CAGA12-lux) transcriptional activity; assay: Luciferase reporter assay in HEK293-(CAGA)12 cells; assay type: cell-based
[2] = system: TGF-β-induced fibrotic response in human fibroblasts; assay: Immunoblot of fibrotic markers in human primary fibroblasts; assay type: cell-based; conditions: 100 pM TGF-β, different dosage of P16, 24 hrs (FIG. 34)
Method: Human primary fibroblasts were starved for 36 hours, then treated with 20 pM TGF-β and 10 nM CD109-based peptide as indicated for 24 hours. (FIG. 29A) Cell lysates were separated by gel electrophoresis, transferred to a membrane, and immunoblotted with antibodies against fibronectin, PAI-1, CTGF, and α-tubulin. (FIG. 29B) The data shown represent the mean expression levels of 3 different biological replicates calculated by densitometry of fibronectin, PAI-1, and CTGF intensity levels normalized to α-tubulin. Error bars represent the standard deviation of the replicate experiments. A single asterisk designates a t test P value of less than 0.05, and a double asterisk indicates a P value of less than 0.01.
Human fibroblasts were starved for 36 hours, then treated with 100 pM TGF-β and different dosage of P16 for 24 hrs. (FIG. 34A) Cell lysates were separated by gel electrophoresis, transferred to a membrane, and immunoblotted with antibodies against each of the indicated proteins. (FIG. 34B) Densitometry analysis was subsequently carried out to quantitate the expression of each of the indicated proteins as a function of P16 concentration.

[3] = system: TGF-b-induced phosphorylation of Smad2 in squamous cell carcinoma (A431) cells; assay: Western blot for phospho-Smad2 in A431 cells; assay type: cell-based; conditions: 10 nM peptide, 100 pM TGF-b, 45 min at 4 C (FIG. 32)
Method: A431 cancer cells treated with 10 nM of P16.2 (negative peptide control), P16 or PA in the absence or presence of 100 pM TGF-b, followed by 45 min of incubation at 4 C. Cells lysates were analyzed by Western blot using an anti-phosphoSmad2 antibody. Actin expression was used as loading control.

[4] = system: human keratinocyte HaCat cell migration; assay: Wound closure assay, HaCat keratinocytes; assay type: cell-based; conditions: 10 nM peptide, 100 pM TGF-β, 24 hours (FIG. 28)
Method: FIGS. 28A and 28B show the results of wound closure assays performed using human keratinocyte HaCat cells. […] (FIG. 28A) Human Keratinocyte HaCat cells were starved for 24 hours, scratched with pipette tips, and then treated with 100 pM TGF-β and 10 nM CD109-based peptides as indicated for 24 hours. Microscopy images were taken at time 0 and 24 hours of treatment. (FIG. 28B) Migration distances were measured using the Image J software platform. Error bars represent mean+/−standard deviation, asterisk designates a P value of <0.05.

[5] = Size-exclusion chromatography on Superdex Peptide 10/300GL column; assay type: physicochemical; conditions: for formation of aggregates by size-exclusion chromatography: peptide in PBS, Superdex Peptide 10/300GL, 0.6 ml/min; for Aggregation?: size-exclusion chromatography, peptide dissolved in PBS
Method: Approximately 200 μg of each peptide X (40 amino acids), X-1 (28 amino acids), peptide A (161 amino acids), P11 (11 amino acids), P16 (16 amino acids), P21 (21 amino acids, P16-2 (16 amino acids, scrambled sequence control), X-3 (16 amino acids) and X-4 (11 amino acids) were dissolved in phosphate-buffered saline (PBS) and loaded onto a Superdex Peptide 10/300GL column. The column was eluted with PBS at a flow rate of 0.6 mL/min and eluents were analyzed for peptide content by measuring relative absorbance at a wavelength of 215 nm. (FIGS. 3A and 3B) The data is plotted with relative absorbance (Y-axis) against elution volume (X-axis). Peptides 1-9 are color coded (A—peptides (1) to (5); B (peptides (6) to (9)). As shown on panel A, peptide X (peptide 1, black line) elution profile indicated two major peaks at approximately 8 mL and 11 mL which correspond to molecular weights greater than 12.4 kDa. The theoretical molecular weight of peptide X is 4.7 kDa which is expected to elute from the column at approximately 15 mL. Under the conditions tested, peptide X existed as high molecular weight aggregates with minimal soluble (monomeric) form. On the other hand, P16 (peptide 5, green line) elution profile indicated a broad peak between 14-22 mL which is expected to contain peptides of between 0.1 and 6 kDa and is consistent with its theoretical molecular weight of 2.01 kDa.
FIG. 4 illustrates the standard curve used for size-exclusion chromatography of standard peptides using the Superdex Peptide 10/300 GL column (results provided in FIG. 3). A pool of standard peptides of various molecular weights (1. cytochrome c (Mr 12.384 kDa) 1 mg/mL; 2. aprotinin (Mr 6.512 kDa) 2 mg/mL; 3. vitamin B12 (Mr 1.355 kDa) 0.1 mg/mL; 4. (Gly)3 (Mr 0.189 kDa) 0.1 mg/mL; 5. Gly (Mr 0.075 kDa) 7.8 mg/mL) were subjected to size-exclusion chromatography using the Superdex Peptide 10/300 GL column (flow rate 0.5 ml/min at room temperature, sample volume of 50 μL, eluent 0.05M phosphate, 0.15 M NaCl, ph 7.0). The resulting chromatogram (absorbance at 215 nm (in mAU, left Y axis) and conductivity (in mS/cm, right Y axis, in function of volume of elution (in mL)) indicates the elution profiles of the above peptides with high MW peptides eluting in earlier fractions and lower MW peptides eluting in later fractions as expected. The molecular weights of peptides were plotted against elution volume generating a standard curve (not shown).
More specifically, approximately […] of each peptide X (40 amino acids), X-1 (28 amino acids), peptide A (161 amino acids), P11 (11 amino acids), P16 (16 amino acids), P21 (21 amino acids, P16-2 (16 amino acids, scrambled sequence control), X-3 (16 amino acids) and X-4 (11 amino acids) were dissolved in phosphate-buffered saline (PBS) and loaded onto a Superdex Peptide 10/300GL column. The column was eluted with PBS at a flow rate of 0.6 ml/min and eluants were analyzed for peptide content by measuring relative absorbance at a wavelength of 215 nm. The data were plotted with relative absorbance (Y-axis) against elution volume (X-axis). […] The theoretical molecular weight of peptide X is 4.7 kDa which is expected to elute from the column at approximately 15 mL. […] P16 (peptide 5) elution profile indicated a peak between 14-22 mL which was expected to contain peptides of between 0.1 and 6 kDa and is consistent with its theoretical molecular weight of 2.01 kDa.
More specifically, a pool of standard proteins of various molecular weights were subjected to size-exclusion chromatography using the Superdex Peptide 10/300 GL column. The resulting chromatogram indicated the elution profiles of the peptides with high molecular weight peptides eluting in earlier fractions and lower molecular weight peptides eluting in later fractions as expected. The molecular weights of peptides were plotted against elution volume generating a standard curve (not shown) and was used to calculate molecular weights of the CD109-based peptides. […]

Row | Sequence | inhibition of TGF-β1-induced CAGA12-lux activity ([1]; 10 nM or 5 nM peptide, 100 pM TGF-β1, 18 hours (FIG. 5)) | inhibition of TGF-β1-induced CAGA12-lux activity ([1]; 10 nM peptide, 100 pM TGF-β1, 18 hours (FIG. 6)) | TGF-β-induced expression of fibronectin, collagen (COL1A1), PAI-1, α-SMA and CTGF [2] | inhibition of TGF-b-induced phosphorylation of Smad2 [3] | suppression of HaCat cell migration [4] | formation of aggregates by size-exclusion chromatography [5] | Aggregation? [5] | molecular weights corresponding to the elution peaks ([5]; PBS, theoretical MW peptide X 4.7 kDa, P16 2.01 kDa)
1 | ETWIWLDTNMGSRIYQ [Peptide P16] | inhibited | inhibited | attenuate | inhibit | suppress | did not | Not aggregated | 
2 | LGSSPHVRKHFPETWIWLDTNMGSRIYQEFEVTVPDSITS (Peptide X) |  |  |  |  |  | formed aggregates | Aggregated | greater than 12.4 kDa
